The numbers were not newly measured in US20200155524A1, “METHOD FOR REDUCING SIDE EFFECTS FROM ADMINISTRATION OF PHOSPHODIESTERASE-4 INHIBITORS” (ARCUTIS, INC., priority 2018, published 2020), which cites them from elsewhere.

Like-named read-outs stand apart in the source and are kept apart here.

The conditions of series [1]: initial oral administration.
The test system of series [2] is PDE-4 isoforms and subtypes. The settings on record: different PDE-4 isoforms and subtypes.
A further series has as its system psoriasis. Particulars: after 4 weeks of dosing.

As for `O=C(Nc1c(Cl)cncc1Cl)c1ccc(OC(F)F)c(OCC2CC2)c1` [roflumilast, N-(3,5-dichloropyrid-4-yl)-3-cyclopropylmethoxy-4-difluoromethoxybenzamid-e], the “Tmax (time after administration to reach Cmax)” value in series [1] (250 mcg tablet) and in series [1] (500 mcg tablet) was 1 h each time. Further, the “half maximal inhibitory concentration (IC50)” value in series [2] is on record as “subnanomolar”.
For `CCC(=O)OCC(=O)[C@@]1(OC(=O)CC)[C@@H](C)C[C@H]2[C@@H]3CCC4=CC(=O)C=C[C@]4(C)[C@@]3(F)[C@@H](O)C[C@@]21C` [betamethasone dipropionate 0.064%, betamethasone dipropionate], the “PASI 75 response rate” value with psoriasis is reported as 32.7%.
For `O=C(Nc1c(Cl)c[n+]([O-])cc1Cl)c1ccc(OC(F)F)c(OCC2CC2)c1` [roflumilast N-oxide, 3-cyclopropylmethoxy-4-difluoromethoxy-N-(3,5-dichloropyrid-4-yl 1-oxide)benzamide], the “half maximal inhibitory concentration (IC50)” value in series [2] is listed as “subnanomolar”.
